Test results: PubChem BioAssay (NCI)
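Method: 48-hour compound exposure of cells in 96-well plates, five concentrations, linear interpolation of endpoints. At the GI50, growth is halved. TGI: concentration producing complete growth inhibition.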

Experiments:
Assay in all cases: NCI tumour cell line growth inhibition, 48 h
[1] = tested on: K-562 leukemia
[2] = tested on: SF-539 CNS
[3] = tested on: SW-620 colon
[4] = tested on: T-47D breast
[5] = tested on: RXF 393 renal
[6] = tested on: OVCAR-5 ovarian
[7] = tested on: COLO 205 colon
[8] = tested on: HCC-2998 colon
[9] = tested on: SK-MEL-28 melanoma
[10] = tested on: EKVX NSCLC

SMILES	GI50 [1] [µM]	TGI [1] [µM]	GI50 [2] [µM]	TGI [2] [µM]	GI50 [3] [µM]	TGI [3] [µM]	GI50 [4] [µM]	TGI [4] [µM]	GI50 [5] [µM]	TGI [5] [µM]	GI50 [6] [µM]	TGI [6] [µM]	GI50 [7] [µM]	TGI [7] [µM]	GI50 [8] [µM]	TGI [8] [µM]	GI50 [9] [µM]	TGI [9] [µM]	GI50 [10] [µM]	TGI [10] [µM]
C#C[C@]1(O)CC[C@H]2[C@@H]3CC=C4c5nc(Nc6ccccn6)sc5CC[C@]4(C)[C@H]3CC[C@@]21C	0.348	2.13	0.185	0.744	1.24	2.91	1.81	5.98	0.218	0.468	1.65	4.44	1.81	4.05	1.95	5.13	0.279	1.01	1.72	9.14
NS(=O)(=O)c1ccc(N2Cc3cc(Cl)ccc3OC3=C2C(=O)N(CC2CCCCC2)C3=O)cc1	0.27	0.736	1.47	2.82	0.202	0.445	0.365	1.86	0.495	1.77	1.76	3.54	0.716	2.28	1.84	3.51	1.16	2.57	1.47	2.91
Cc1cc2c(cc1C)NC1=C(N2)OC(c2c[nH]c3ccc(COc4ccccc4)cc23)C1=O (stereo not drawn)	–	> 100	–	95.3	–	> 100	–	> 100	–	> 100	–	> 100	–	> 100	–	98.5	–	> 100	–	> 100
CCN(c1ccc(CO)c(Cl)c1)C(C)c1ccc(F)cc1 (stereo not drawn)	9.86	24.7	16.5	30.8	14.1	30.2	4.22	18.2	11	26	2.97	11.9	18.9	35.5	16.6	32.8	16.1	30.6	–	–
CC(C)c1ccc2nc3ccc(C(=O)NCCN(C)C)cn3c(=O)c2c1	–	9.46	–	29.2	–	28.6	–	38.4	–	–	–	33.2	–	33.8	–	31.7	–	32.4	–	34.7
S=C(N/N=C/c1cc(Cl)cc(Cl)c1)NC12CC3CC(CC(C3)C1)C2	> 100	> 100	8.85	> 100	13.4	> 100	6.94	> 100	4.19	> 37.2	13.6	> 100	7.13	> 100	> 100	> 100	14.4	> 100	–	–
COc1cc(/C=C2\CN(C)CC3=C2Nc2nc(SC)[nH]c(=O)c2C3c2cc(OC)c(OC)c(OC)c2)cc(OC)c1OC (stereo not drawn)	–	–	3.64	15.6	2	4.41	3.69	22.6	1.81	3.45	4.83	16.7	2.11	4.73	1.91	3.63	2.1	4.29	8.44	66.4
